The target in experiment [1] is T1, Heat shock factor protein 1 (Mus musculus, UniProt P38532).
T1 sequence (P38532 whole entry): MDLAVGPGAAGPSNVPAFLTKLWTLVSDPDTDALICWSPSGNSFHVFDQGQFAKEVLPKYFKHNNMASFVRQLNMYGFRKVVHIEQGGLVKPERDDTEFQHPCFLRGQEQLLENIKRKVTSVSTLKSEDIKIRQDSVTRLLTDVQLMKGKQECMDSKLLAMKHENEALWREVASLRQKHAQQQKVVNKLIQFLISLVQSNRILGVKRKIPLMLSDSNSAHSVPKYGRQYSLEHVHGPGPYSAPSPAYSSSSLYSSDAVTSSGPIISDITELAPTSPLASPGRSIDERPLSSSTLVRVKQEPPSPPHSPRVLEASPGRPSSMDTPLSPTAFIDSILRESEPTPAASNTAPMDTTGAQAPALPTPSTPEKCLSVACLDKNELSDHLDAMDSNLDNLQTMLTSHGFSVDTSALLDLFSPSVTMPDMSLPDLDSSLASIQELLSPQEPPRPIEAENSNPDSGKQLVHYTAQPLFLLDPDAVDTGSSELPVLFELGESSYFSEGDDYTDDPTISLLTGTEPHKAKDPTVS
Kind of experiment: decrease of HSF1-responsive luciferase luminescence – cell-based, NIH3T3, dose retest, confirmation (AID 2382).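 Also: NIH3T3 fibroblasts with HSF1-driven luciferase reporter stressed by proteasome inhibitor MG132; luminescence from HSF1-driven luciferase expression after 8 hours of MG132 stress.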 Format: functional.

Experiment [2] is described as follows: Luminescence Cell-Based Dose Confirmation HTS to Identify Activators of 5'UTR Stem-Loop Driven Alpha-Synuclein mRNA Translation in H4 Neuroglioblastoma Cells. [Related pubchem assays: 1829 (Project Summary), 1814 (Primary HTS)]. Format: functional.
Experiment [3] in a line: Luminescence Cell-Based Dose Response HTS to Identify Activators of Luciferase Translation or Activity in H4 […] Cells. [Related pubchem assays: 1829 (Project Summary), 1814 (Primary HTS)]. The class given is functional.
The test system of the next experiment is H4. The experiment in a line: Luminescence Cell-Based Dose Response HTS to Identify Activators of 5'UTR Stem-Loop Driven Prion Protein mRNA Translation in H4 Neuroglioblastoma Cells. [Related pubchem assays: 1829 (Project Summary), 1814 (Primary HTS)]. The class given is functional. The following applies: Homo sapiens.
Experiment [4] addresses Luciferin 4-monooxygenase (Photinus pyralis, UniProt P08659). Kind of experiment: inhibition of purified Photinus pyralis luciferase – biochemical, luminescence, dose response (AID 1891).
Experiment [5] is described as follows: Luminescence Cell-Based Dose Confirmation HTS to Identify Inhibitors of Platelet Dense Granule Release. [Related pubchem assays: 1663 (Primary HTS), 1678 (Summary of Project)]. Format: functional.
In experiment [6] the target is T2, Rac GTPase-activating protein 1 (Homo sapiens, UniProt Q9H0H5).
T2 sequence (Q9H0H5 whole entry): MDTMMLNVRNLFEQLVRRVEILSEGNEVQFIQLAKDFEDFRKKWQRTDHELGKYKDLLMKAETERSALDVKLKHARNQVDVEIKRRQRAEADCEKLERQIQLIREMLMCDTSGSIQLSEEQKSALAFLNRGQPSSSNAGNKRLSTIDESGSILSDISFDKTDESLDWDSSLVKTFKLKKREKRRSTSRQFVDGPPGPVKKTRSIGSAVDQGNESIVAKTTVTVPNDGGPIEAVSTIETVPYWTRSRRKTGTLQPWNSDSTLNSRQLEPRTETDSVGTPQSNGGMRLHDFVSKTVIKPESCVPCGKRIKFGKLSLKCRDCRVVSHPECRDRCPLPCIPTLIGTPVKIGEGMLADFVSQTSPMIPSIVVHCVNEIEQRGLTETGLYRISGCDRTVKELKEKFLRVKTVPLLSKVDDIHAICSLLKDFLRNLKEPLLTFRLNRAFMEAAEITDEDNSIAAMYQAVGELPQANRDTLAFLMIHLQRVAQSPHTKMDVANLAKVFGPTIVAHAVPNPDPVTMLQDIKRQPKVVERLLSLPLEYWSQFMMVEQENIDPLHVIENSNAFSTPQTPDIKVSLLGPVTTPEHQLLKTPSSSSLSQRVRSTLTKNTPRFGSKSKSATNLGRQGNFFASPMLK
Kind of experiment: blockers of MgcRacGAP-driven Rac1 GTP hydrolysis – biochemical, ADP Hunter fluorescence, primary and confirmatory, confirmation (AID 624330). Format: functional.

Another experiment addresses Paired box protein Pax-8 (Homo sapiens, UniProt Q06710). Kind of experiment: PAX8 transcriptional activity inhibition in RMG-I – RMG-I cells, luciferase, cherry-pick, dose response (AID 687027).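 Also: luciferase reporter driven by Pax8 target thyroperoxidase promoter measured by SteadyGlo luminescence.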 The class given is functional, cell-based.

Structures are written as SMILES. Activity calls are given as the source filed them. Rule as the data show it, for most assays here: actives have a measured EC50 and inactives only a lower limit.

A word on the EC50: it is the midpoint of the concentration-response curve. The term IC50 denotes the concentration that gives 50% inhibition. One may read the AC50 as the midpoint of the concentration-response curve, whichever way the signal moves.

Chain of Luciferin 4-monooxygenase (P08659 whole entry): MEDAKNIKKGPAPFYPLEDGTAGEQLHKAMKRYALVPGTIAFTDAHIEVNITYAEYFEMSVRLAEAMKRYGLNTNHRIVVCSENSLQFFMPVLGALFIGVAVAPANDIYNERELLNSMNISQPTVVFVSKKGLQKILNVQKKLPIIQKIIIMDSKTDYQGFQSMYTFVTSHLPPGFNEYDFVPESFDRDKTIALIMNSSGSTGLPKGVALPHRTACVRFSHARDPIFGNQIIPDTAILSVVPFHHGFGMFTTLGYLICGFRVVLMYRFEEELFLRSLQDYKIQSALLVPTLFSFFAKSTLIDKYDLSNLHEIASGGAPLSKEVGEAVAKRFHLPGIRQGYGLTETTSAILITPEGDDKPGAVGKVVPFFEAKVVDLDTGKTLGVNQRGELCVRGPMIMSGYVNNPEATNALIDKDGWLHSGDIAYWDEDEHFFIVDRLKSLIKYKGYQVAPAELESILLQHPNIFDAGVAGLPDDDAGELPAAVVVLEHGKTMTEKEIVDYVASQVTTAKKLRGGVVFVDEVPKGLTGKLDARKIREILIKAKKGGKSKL
Chain of Paired box protein Pax-8 (Q06710 whole entry): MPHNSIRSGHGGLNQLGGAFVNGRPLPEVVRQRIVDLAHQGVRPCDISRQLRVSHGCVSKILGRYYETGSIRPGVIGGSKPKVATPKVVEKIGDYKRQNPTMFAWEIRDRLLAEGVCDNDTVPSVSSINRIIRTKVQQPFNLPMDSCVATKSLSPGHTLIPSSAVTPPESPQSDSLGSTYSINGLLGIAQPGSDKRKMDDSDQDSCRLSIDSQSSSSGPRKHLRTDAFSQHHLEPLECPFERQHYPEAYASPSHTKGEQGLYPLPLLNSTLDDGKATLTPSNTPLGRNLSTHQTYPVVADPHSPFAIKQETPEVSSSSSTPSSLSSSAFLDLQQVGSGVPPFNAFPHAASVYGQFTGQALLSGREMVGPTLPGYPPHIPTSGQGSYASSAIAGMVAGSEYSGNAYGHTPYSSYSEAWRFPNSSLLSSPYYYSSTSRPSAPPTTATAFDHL

In the case of `Cn1c(=O)c2c(SCC(=O)N3CCCc4ccccc43)nc(C3CC3)nc2n(C)c1=O`, the EC50 in experiment [1] was > 195 µM (not active).
For `COc1ccc(NC(=O)C2CC2)cc1-n1cnnn1`, the EC50 in experiment [1] is > 195 µM (not active).
Consider `O=C(Nc1ccccc1)C1=C[C@@H](c2ccccc2)C[C@@H](OCc2ccc(CO)cc2)O1`, for which the EC50 in experiment [2] is 7.69 µM (active); in experiment [3], > 120 µM (not active); in the experiment with H4 it was 14.2 µM (active).
In the case of `CN(C(=O)CSc1nncn1C)C1CCCN(Cc2ccccc2F)C1` (centres undefined), the EC50 in experiment [4] and in experiment [5] was > 112 µM (not active) in each case.
As to `Cc1cc(C)nc(NC2=NCCS2)n1`, the EC50 in experiment [4] and in experiment [5] was > 112 µM (not active) in each case.
`CCN(CC)CCCNCC(=O)Nc1ccc2c(c1)CCC2`: the IC50 in experiment [6] is 117 µM (active).
Turning to `COc1ccc(N(C(=O)c2ccc(F)cc2)C2=CC3CCC(C2)N3C)cc1` (centres undefined), the EC50 in experiment [4] and in experiment [5] was > 112 µM (not active) in each case.
In the case of `COc1ccc(N2CCN(C(=O)Cc3ccc(-n4c(=O)[nH]c5ccccc5c4=O)cc3)CC2)cc1`, the EC50 in experiment [1] is > 195 µM (not active).
In the case of `CCOC(=O)c1[nH]c2ccc(OC)cc2c1N=C(S)N1CCN(C(=O)OCC)CC1`, the EC50 in experiment [4] and in experiment [5] was > 112 µM (not active) in each case.
Take `Nc1c(Cl)ncnc1NCCc1ccc(O)cc1`: in experiment [6], the IC50 is 99.1 µM (active).
Take `CSc1nc(N)n2nc(-c3ccccc3)cc2n1`: the EC50 is 3.8 µM (active) in experiment [4] and 5.68 µM (active) in experiment [5].
Turning to `O=C(NCC(O)c1ccccc1)c1ccc(Cl)c(S(=O)(=O)N2CCCC2)c1` (centres undefined), the EC50 in experiment [2] was 37.8 µM (active); in experiment [3], 14.9 µM (active).
Consider `CCOC(=O)c1sc(NC(=O)CC(C)c2ccccc2)nc1C` (centres undefined), for which the EC50 in experiment [4] and in experiment [5] was > 112 µM (not active) each time.
On to `S=C(c1ccc2c(c1)OCO2)N1CCCCC1`, for which the EC50 in experiment [4] and in experiment [5] was > 112 µM (not active) throughout.
As for `Cc1cc(C(=O)CSc2nc3ccccc3o2)c(C)n1C1CC1`, the values for the EC50 in experiment [2] and in experiment [3] were 35.7 µM (active) and 0.905 µM (active), respectively.
Consider `COc1ccc(S(=O)(=O)NCC2CCCN(C(=O)C3CCCC3)C2)cc1` (centres undefined), for which, in experiment [1], the EC50 is > 195 µM (not active).
For `O=C(Nc1ccc2c(c1)OCO2)C1CC(c2c(F)cccc2Cl)=NO1` (centres undefined), the EC50 in experiment [2] is 3.83 µM (active); in experiment [3], 25.6 µM (active); in the experiment with H4, 13.6 µM (active).
With `CCOC(=O)C1=C(COC(=O)/C=C/c2ccc(O)c(OC)c2)NC(=O)NC1C` (centres undefined), the IC50 in experiment [6] was 59.4 µM (active).
Regarding `Sc1nnc(-c2cnccn2)n1-c1ccccc1`, the EC50 in experiment [1] is reported as > 195 µM (not active).
Take `CNC(=O)c1cc(S(=O)(=O)N(C)C)ccc1Cl`: the EC50 in experiment [4] and in experiment [5] was > 112 µM (not active) each time.
As to `COc1ccc(OC(C)C(=O)N2CCC(C)CC2)cc1` (centres undefined), the concentration for a half-maximal effect (EC50) in experiment [1] is > 195 µM (not active).
For `COc1ccc(/C=N/Nc2nccnc2Cl)cc1`, the EC50 in experiment [4] is 3.76 µM (active); in experiment [5] it was 1.15 µM (active).
As to `Nc1ccc2nc(-c3ccccn3)[nH]c2c1`, in experiment [1], the EC50 was 23.2 µM (active).
With `C[C@@H]1CCCCO[C@H](CN(C)Cc2ccc(C(F)(F)F)cc2)[C@H](C)CN([C@@H](C)CO)C(=O)c2cc(NS(=O)(=O)c3cccs3)ccc2O1`, the AC50 at Paired box protein Pax-8 was 9.41 µM (active).
Regarding `O=C(O)c1ccc(/C=N\Nc2ccccn2)cc1`, the EC50 in experiment [4] is 3.56 µM (active); in experiment [5], 2.54 µM (active).
The like results for `O=C(O)CC1Sc2ccccc2NC1=O` (centres undefined) were, in that order, > 112 µM (not active) and > 112 µM (not active).
For the molecule `COc1ccc(N2CCN(C(CNC(=O)CC(C)(C)C)c3ccc4c(c3)OCO4)CC2)cc1` (centres undefined), in experiment [6], the IC50 was 166 µM (active).

These data come from ChEMBL document CHEMBL1201862, “PubChem BioAssay data set” (2004).
